Legend:
[1] = target: T1, type 2 human 5α-reductase (HRED2) (Homo sapiens, UniProt P31213); assay: Cell free assay of 5α-reductase, microsomes of rat 1A cells expressing type 2 isoenzyme (HRED2); format: biochemical; design: expressed in transfected cells; host or cells: rat 1A cells infected with pMV7 retrovirus; microsomes;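 also: labeled testosterone and its product dihydrotestosterone measured in microsomal reaction extracts via thin layer chromatography plus radioanalytic scanning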
T1 sequence (P31213 1-254): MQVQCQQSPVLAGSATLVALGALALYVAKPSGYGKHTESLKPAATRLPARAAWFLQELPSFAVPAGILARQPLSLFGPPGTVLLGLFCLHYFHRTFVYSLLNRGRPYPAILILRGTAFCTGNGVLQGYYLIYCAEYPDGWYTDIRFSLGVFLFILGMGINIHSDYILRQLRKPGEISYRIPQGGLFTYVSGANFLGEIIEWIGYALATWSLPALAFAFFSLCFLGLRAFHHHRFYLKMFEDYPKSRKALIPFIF

[2] = target: T2, type 1 human 5α-reductase (HRED1) (Homo sapiens, UniProt P18405); assay: Whole cell assay of 5α-reductase, type 1 isoenzyme; format: cell-based; design: expressed in transfected cells; host or cells: rat 1A cells infected with pMV7 retrovirus;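 also: intact rat 1A cells engineered to express the human type 1 5α-reductase isozyme serve as the enzyme source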
T2 sequence (P18405 1-259): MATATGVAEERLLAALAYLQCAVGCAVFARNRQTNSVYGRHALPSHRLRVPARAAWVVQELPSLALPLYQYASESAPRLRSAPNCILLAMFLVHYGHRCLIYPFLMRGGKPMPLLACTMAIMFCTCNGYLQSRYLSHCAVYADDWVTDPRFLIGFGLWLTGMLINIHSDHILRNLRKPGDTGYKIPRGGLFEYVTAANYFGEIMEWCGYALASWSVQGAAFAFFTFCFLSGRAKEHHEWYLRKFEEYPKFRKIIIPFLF

[3] = target: T1, type 2 human 5α-reductase (HRED2); assay: Whole cell assay of 5α-reductase, type 2 isoenzyme; format: cell-based; design: expressed in transfected cells; host or cells: rat 1A cells infected with pMV7 retrovirus; details: for inhibition at 100 µM / HRED2 % Inhibition @ 100 μM: Table 7; for IC50: Table 7, read-out: HCRED2 IC50;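 as to all read-outs here: intact rat 1A cells genetically modified to carry human type 2 5α-reductase served as the enzyme source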
[4] = target: T2, type 1 human 5α-reductase (HRED1); assay: Cell free assay of 5α-reductase, microsomes of rat 1A cells expressing type 1 isoenzyme (HRED1); format: biochemical; design: expressed in transfected cells; host or cells: rat 1A cells infected with pMV7 retrovirus; microsomes;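 also: microsomes from rat 1A cells expressing human type 1 5α-reductase, conversion of radiolabeled testosterone to dihydrotestosterone quantified by thin layer chromatography with radioanalytic scanning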
[5] = cell free assay, Table 1 flavanoids, read-out: HRED2 IC50
[6] = whole cell assay, Table 7, read-out: HCRED1 IC50
[7] = cell free assay, Table 1 flavanoids, read-out: HRED1 IC50
[8] = 100 uM, cell free assay, Table 1, read-out: HRED2 % Inhibition @ 100 uM
[9] = 100 uM, cell free assay, Table 1, read-out: HRED1 % Inhibition @ 100 uM
[10] = cell-free assay, read-out: IC50, type 1 isoenzyme

| SMILES | IC50 [1, 5] | inhibition at 100 µM ([2]; whole cell assay, Table 7) | IC50 [2, 6] | inhibition at 100 µM [3] | IC50 [3] | IC50 [4, 7] | HRED1 % Inhibition @ 100 μM ([2]; whole cell assay, Table 7) | HRED2 % Inhibition @ 100 μM [3] | further results |
| --- | --- | --- | --- | --- | --- | --- | --- | --- | --- |
| O=C(O[C@@H]1Cc2c(O)cc(O)cc2O[C@@H]1c1ccc(O)c(O)c1)c1cc(O)c(O)c(O)c1 [Epicatechin Gallate] | 60 µM | 0% | > 100 µM | 0% | > 100 µM | 11 µM |  |  | inhibition at 100 µM ([1]; read-out: HRED2 % Inhibition @ 100 uM): 83%; inhibition at 100 µM ([4]; read-out: HRED1 % Inhibition @ 100 uM): 100% |
| Oc1cc(O)c2c(c1)O[C@H](c1ccc(O)c(O)c1)[C@H](O)C2 [Epicatechin] | > 100 µM | 0% | > 100 µM | 1% | > 100 µM | > 100 µM |  |  | inhibition at 100 µM [1, 8]: 4%; inhibition at 100 µM [4, 9]: 14% |
| Oc1cc(O)c2c(c1)O[C@H](c1cc(O)c(O)c(O)c1)[C@H](O)C2 [Epigallocatechin] | > 100 µM | 15% | > 100 µM | 1% | > 100 µM | > 100 µM |  |  | inhibition at 100 µM [1, 8]: 3%; inhibition at 100 µM ([1]; 100 μM, cell free assay, Table 5, read-out: HRED2 % Inhibition @ 100 μM): 30%; IC50 ([1]; cell free assay, Table 5 epigallocatechin derivatives, read-out: HRED2 IC50): > 100 µM; inhibition at 100 µM [4, 9]: 15%; inhibition at 100 µM ([4]; 100 μM, cell free assay, Table 5, read-out: HRED1 % Inhibition @ 100 μM): 61%; IC50 ([4]; cell free assay, Table 5 epigallocatechin derivatives, read-out: HRED1 IC50): 62 µM |
| O=c1c(O)c(-c2ccc(O)c(O)c2)oc2cc(O)ccc12 [Fisetin] | > 100 µM | 42% | > 100 µM | 27% | > 100 µM | 57 µM |  |  | inhibition at 100 µM [1, 8]: 4%; inhibition at 100 µM [4, 9]: 97%; IC50 [4, 10]: < 100 µM |
| O=C(O)c1cc(O)c(O)c(O)c1 [Gallic Acid] |  | 13% |  | 0% | > 100 µM |  |  |  | IC50 [2]: > 100 µM |
| CCCCC/C=C\C/C=C\C/C=C\CCCCC(=O)O[C@H]1CC[C@@]2(C)C(=CC[C@H]3[C@@H]4CC[C@H]([C@H](C)CCCC(C)C)[C@@]4(C)CC[C@@H]32)C1 [Gamma-Linolenic Acid Chol Ester] |  |  | > 100 µM |  | > 100 µM |  | 12% | 11% |  |
| CCCCC/C=C\C/C=C\C/C=C\CCCCC(=O)OC [Gamma-Linolenic Acid Me Ester] |  |  | > 100 µM |  | > 100 µM |  | 49% | 26% |  |
| CCCCC/C=C\C/C=C\C/C=C\CCCCC(=O)O [Gamma-Linolenic Acid, Gamma-Linolenic Acid C18:3 CIS 6.9,12] |  | 91% | 22 µM | 86% | 20 µM |  |  |  | inhibition at 100 µM ([1]; 100 μM, cell free assay, Table 6, read-out: HRED2 % Inhibition @ 100 μM): 89%; IC50 ([1]; cell free assay, Table 6 fatty acids, read-out: HRED2 IC50): 11 µM; IC50 ([1]; cell-free assay, read-out: IC50, type 2 isoenzyme): 3 µM; IC50 ([4]; cell free assay, Table 6 fatty acids, read-out: HRED1 IC50): 5 µM; IC50 [4, 10]: 3 µM; inhibition at 100 µM ([4]; read-out: HRED1 % Inhibition @ 100 μM): 99% |
| O=c1c(-c2ccc(O)cc2)coc2cc(O)cc(O)c12 [Genistein] |  |  |  |  |  |  |  |  | inhibitory activity against type 2 isoenzyme, in words ([1]; cell-free assay): effective inhibitors; inhibitory activity in the whole cell assay, type 2 isoenzyme, in words [3]: significant inhibitory activity |
| CCCCCCCCCCCCCC(=O)OC1Cc2c(O)cc(O)cc2OC1c1cc(O)c(O)c(O)c1 (stereo not shown) [HZIV 165] |  |  | 28 µM |  | 32 µM |  | 97% | 98% |  |
| CCCCCCCC(=O)OC1Cc2c(O)cc(O)cc2OC1c1cc(O)c(O)c(O)c1 (stereo not shown) [HZIV 166] |  |  | 58 µM |  | 72 µM |  | 89% | 83% |  |
| CC(C)OC(=O)c1cc(O)c(O)c(O)c1 [Isopropyl Gallate] |  | 0% | > 100 µM | 0% | > 100 µM |  |  |  |  |
